From patent US7579469B2, “Glucocorticoid mimetics, methods of making them, pharmaceutical compositions, and uses thereof” (Boehringer Ingelheim Pharmaceuticals, Inc., priority 2003, dated 2009)

These molecules were tested against T1, human glucocorticoid receptor (GR) complex (Homo sapiens, UniProt P04150) (assay: Glucocorticoid receptor competitive binding assay (fluorescence polarization)). Settings: competition with TAMRA-labeled dexamethasone.
T1 construct: made in house; host or cells: insect expression system (baculovirus lysate)
T1 sequence (P04150 1-777): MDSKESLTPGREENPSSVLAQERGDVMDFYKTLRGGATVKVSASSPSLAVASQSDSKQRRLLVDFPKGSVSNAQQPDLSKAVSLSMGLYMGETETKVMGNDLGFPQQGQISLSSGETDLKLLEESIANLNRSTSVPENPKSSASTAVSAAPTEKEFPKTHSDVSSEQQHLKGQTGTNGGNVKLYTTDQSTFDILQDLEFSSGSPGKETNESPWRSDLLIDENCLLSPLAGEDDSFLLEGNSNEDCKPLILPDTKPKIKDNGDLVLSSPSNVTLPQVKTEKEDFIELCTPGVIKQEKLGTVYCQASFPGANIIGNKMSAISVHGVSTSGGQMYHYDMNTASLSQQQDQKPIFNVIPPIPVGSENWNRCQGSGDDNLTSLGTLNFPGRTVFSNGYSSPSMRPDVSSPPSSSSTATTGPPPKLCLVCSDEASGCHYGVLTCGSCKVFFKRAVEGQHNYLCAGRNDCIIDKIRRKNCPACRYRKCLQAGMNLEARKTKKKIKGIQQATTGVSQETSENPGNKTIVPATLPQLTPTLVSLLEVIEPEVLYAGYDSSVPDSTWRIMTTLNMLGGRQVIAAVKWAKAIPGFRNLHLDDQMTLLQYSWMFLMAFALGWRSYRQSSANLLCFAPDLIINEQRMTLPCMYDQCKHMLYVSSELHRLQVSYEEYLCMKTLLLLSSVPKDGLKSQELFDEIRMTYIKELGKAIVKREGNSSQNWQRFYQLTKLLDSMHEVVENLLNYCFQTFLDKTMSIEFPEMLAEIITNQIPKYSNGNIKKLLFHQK
Protocol: Compounds of the invention were evaluated for binding to the steroid receptor by a fluorescence polarization competitive binding assay.
A. Glucocorticoid Receptor Competitive Binding Assay
Step 1. Characterization of the Fluorescent Probe
The wavelengths for maximum excitation and emission of the fluorescent probe should first be measured. An example of such a probe is rhodamine (TAMRA)-labeled dexamethasone.
The affinity of the probe for the steroid receptor was then determined in a titration experiment. The fluorescence polarization value of the probe in assay buffer was measured on an SLM-8100 fluorometer using the excitation and emission maximum values described above. Aliquots of expression vector lysate were added and fluorescence polarization was measured after each addition until no further change in polarization value was observed. Non-linear least squares regression analysis was used to calculate the dissociation constant of the probe from the polarization values obtained for lysate binding to the probe.
Step 2. Screening for Inhibitors of Probe Binding
This assay uses fluorescence polarization (FP) to quantitate the ability of test compounds to compete with tetramethyl rhodamine (TAMRA)-labeled dexamethasone for binding to a human glucocorticoid receptor (GR) complex prepared from an insect expression system. The assay buffer was: 10 mM TES, 50 mM KCl, 20 mM Na2MoO4.2H20, 1.5 mM EDTA, 0.04% w/v CHAPS, 10% v/v glycerol, 1 mM dithiothreitol, pH 7.4. Test compounds were dissolved to 1 mM in neat DMSO and then further diluted to 10× assay concentration in assay buffer supplemented with 10% v/v DMSO. Test compounds were serially diluted at 10× assay concentrations in 10% DMSO-containing buffer in 96-well polypropylene plates. Binding reaction mixtures were prepared in 96-well black Dynex microtiter plates by sequential addition of the following assay components to each well: 15 μL of 10× test compound solution, 85 μL of GR-containing baculovirus lysate diluted 1:170 in assay buffer, and 50 μL of 15 nM TAMRA-labeled dexamethasone. Positive controls were reaction mixtures containing no test compound; negative controls (blanks) were reaction mixtures containing 0.7 μM to 2 μM dexamethasone. […] IC50 values were determined by iterative non-linear curve fitting of the FP signal data to a 4-parameter logistic equation.

Activity in the GR binding assay, potent activity:
COC(=O)Oc1ccc(F)cc1C(C)(C)CC(O)(Cn1ccc(=O)c2ccccc21)C(F)(F)F (centres unmarked)
CC(C)(CC(O)(Cn1ccc(=O)c2ccccc21)C(F)(F)F)c1cc(CN2CCOCC2)ccc1O (centres unmarked) [1-[2-Hydroxy-4-(2-hydroxy-5-morpholin-4-ylmethylphenyl)-4-methyl-2-trifluoromethylpentyl]-1H-quinolin-4-one]
COc1ccc(F)cc1C(C)(C)CC(O)(Cn1cc(C(F)(F)F)cc([N+](=O)[O-])c1=O)C(F)(F)F (centres unmarked) [1-[4-(5-Fluoro-2-methoxyphenyl)-2-hydroxy-4-methyl-2-trifluoromethylpentyl]-3-nitro-5-trifluoromethyl-1H-pyridin-2-one]
CC(C)(CC(O)(Cn1ccc(=O)c2ccccc21)C(F)(F)F)c1cc(F)cc(F)c1 (centres unmarked)
Cc1ccc(C(C)(C)CC(O)(Cn2ccc(=O)c3ccccc32)C(F)(F)F)cc1F (centres unmarked) [1-[4-(3-Fluoro-4-methylphenyl)-2-hydroxy-4-methyl-2-trifluoromethylpentyl]-1H-quinolin-4-one]
CC(C)(CC(O)(CN1CCN(C(=O)c2ccco2)CC1)C(F)(F)F)c1cc(F)ccc1O (centres unmarked) [{4-[4-(5-Fluoro-2-hydroxyphenyl)-2-hydroxy-4-methyl-2-trifluoromethylpentyl]piperazin-1-yl}furan-2-ylmethanone]
COc1ccc(F)cc1C(C)(C)CC(O)(Cn1cc(C(F)(F)F)cc(Cl)c1=O)C(F)(F)F (centres unmarked) [3-Chloro-1-[4-(5-fluoro-2-methoxyphenyl)-2-hydroxy-4-methyl-2-trifluoromethylpentyl]-5-trifluoromethyl-1H-pyridin-2-one]
COc1ccc(F)cc1C(C)(C)CC(O)(Cn1ccc(=O)c2cccc(F)c21)C(F)(F)F (centres unmarked) [8-Fluoro-1-[4-(5-fluoro-2-methoxyphenyl)-2-hydroxy-4-methyl-2-trifluoromethylpentyl]-1H-quinolin-4-one]
COc1ccc(F)cc1C(C)(C)CC(O)(CN1CCS(=O)(=O)c2ccccc21)C(F)(F)F (centres unmarked) [2-(1,1-Dioxo-2,3-dihydro-1H-1λ^6-benzo[1,4]thiazin-4-ylmethyl)-1,1,1-trifluoro-4-(5-fluoro-2-methoxyphenyl)-4-methylpentan-2-ol]
CC(=O)COc1cccc(C(C)(C)CC(O)(Cn2ccc(=O)c3ccccc32)C(F)(F)F)c1 (centres unmarked) [1-{2-Hydroxy-4-methyl-4-[3-(2-oxopropoxy)phenyl]-2-trifluoromethylpentyl}-1H-quinolin-4-one]
CC(C)(CC(O)(Cn1ccc(=O)c2ccccc21)C(F)(F)F)c1ccc(O)c(F)c1 (centres unmarked) [1-[4-(3-Fluoro-4-hydroxyphenyl)-2-hydroxy-4-methyl-2-trifluoromethylpentyl]-1H-quinolin-4-one]
Cc1ccc(C)c(C(C)(C)CC(O)(Cn2ccc(=O)c3ccccc32)C(F)(F)F)c1 (centres unmarked)
Cc1cn(CC(O)(CC(C)(C)c2cc(S(C)(=O)=O)cc3c2OCC3)C(F)(F)F)c2ccccc2c1=O (centres unmarked) [1-[2-Hydroxy-4-(5-methanesulfonyl-2,3-dihydrobenzofuran-7-yl)-4-methyl-2-trifluoromethylpentyl]-3-methyl-1H-quinolin-4-one]
COc1ccc(C(C)=O)cc1C(C)(C)CC(O)(Cn1ccc(=O)c2ccccc21)C(F)(F)F (centres unmarked) [1-[4-(5-Acetyl-2-methoxyphenyl)-2-hydroxy-4-methyl-2-trifluoromethylpentyl]-1H-quinolin-4-one]
COc1ccc(-c2c(C)noc2C)cc1C(C)(C)CC(O)(Cn1ccc(=O)c2ccccc21)C(F)(F)F (centres unmarked) [1-{4-[5-(3,5-Dimethylisoxazol-4-yl)-2-methoxyphenyl]-2-hydroxy-4-methyl-2-trifluoromethylpentyl}-1H-quinolin-4-one]
COc1cc(F)ccc1C(C)(C)CC(O)(Cn1ccc(=O)c2ccccc21)C(F)(F)F (centres unmarked)
Cc1ccc(F)cc1C(C)(C)CC(O)(Cn1ccc(=O)c2ncccc21)C(F)(F)F (centres unmarked) [1-[4-(5-Fluoro-2-methylphenyl)-2-hydroxy-4-methyl-2-trifluoromethylpentyl]-1H-[1,5]naphthyridin-4-one]
COc1ccc(F)cc1C(C)(C)CC(O)(Cn1cc(C)c(=O)c2ccccc21)C(F)(F)F (centres unmarked)
COc1ccc(F)cc1C(C)(C)CC(O)(Cn1ccc(=O)c2ccccc21)C(F)(F)F (centres unmarked) [1-[4-(5-Fluoro-2-methoxyphenyl)-2-hydroxy-4-methyl-2-trifluoromethylpentyl]-1H-quinolin-4-one]
Cc1cc(F)ccc1C(C)(C)CC(O)(Cn1ccc(=O)c2ccccc21)C(F)(F)F (centres unmarked)
CC(C)(CC(O)(Cn1cc(CO)c(=O)c2ccccc21)C(F)(F)F)c1cc(F)ccc1O (centres unmarked) [1-[4-(5-Fluoro-2-hydroxyphenyl)-2-hydroxy-4-methyl-2-trifluoromethylpentyl]-3-hydroxymethyl-1H-quinolin-4-one]
COc1ccc(F)cc1C(C)(C)CC(O)(Cn1cc(C)c(=O)c(C)c1CO)C(F)(F)F (centres unmarked) [1-[4-(5-Fluoro-2-methoxyphenyl)-2-hydroxy-4-methyl-2-trifluoromethylpentyl]-2-hydroxymethyl-3,5-dimethyl-1H-pyridin-4-one]
CC(C)(CC(O)(Cn1ccc(=O)c2ccccc21)C(F)(F)F)c1cc(Cl)cc2c1OCC2 (centres unmarked) [1-[4-(5-Chloro-2,3-dihydrobenzofuran-7-yl)-2-hydroxy-4-methyl-2-trifluoromethylpentyl]-1H-quinolin-4-one]
COc1ccc(F)cc1C(C)(C)CC(O)(Cn1ccc(=O)c2cc(C)ccc21)C(F)(F)F (centres unmarked)
CC(C)(CC(O)(Cn1ccc(=O)c2ccccc21)C(F)(F)F)c1cccc(C=O)c1 (centres unmarked) [3-[4,4,4-Trifluoro-3-hydroxy-1,1-dimethyl-3-(4-oxo-4H-quinolin-1-ylmethyl)butyl]benzaldehyde]
CC(C)(CC(O)(Cn1ccc(=O)c2ccccc21)C(F)(F)F)c1cc(F)cc2c1OCC2 (centres unmarked)
C/C(=N/OCc1ccccc1)c1cccc(C(C)(C)CC(O)(Cn2ccc(=O)c3ccccc32)C(F)(F)F)c1 (centres unmarked) [1-(4-{3-[1-(Benzyloxyimino)ethyl]phenyl}-2-hydroxy-4-methyl-2-trifluoromethylpentyl)-1H-quinolin-4-one]
Cc1cn(CC(O)(CC(C)(C)c2cccc3c2OCC3)C(F)(F)F)c2ccccc2c1=O (centres unmarked) [1-[4-(2,3-Dihydrobenzofuran-7-yl)-2-hydroxy-4-methyl-2-trifluoromethylpentyl]-3-methyl-1H-quinolin-4-one]
Cc1noc(C)c1-c1ccc(O)c(C(C)(C)CC(O)(Cn2ccc(=O)c3ccccc32)C(F)(F)F)c1 (centres unmarked) [1-{4-[5-(3,5-Dimethylisoxazol-4-yl)-2-hydroxyphenyl]-2-hydroxy-4-methyl-2-trifluoromethylpentyl}-1H-quinolin-4-one]
